pEC50, pIC50, pKi: −log10 of the molar value. Entries after “also recorded” stand apart in the source; their conditions may differ.
What was measured:
[1] = system: Plasmodium falciparum 3D7 parasites; set-up: method as in PMID 23798988; conditions: in vitro; cited from earlier work
PfFNT G107S = system: PfFNT G107S; set-up: method as in PMID 23798988; conditions: PfFNT G107S point mutation; cited from earlier work
[2] = system: resistant parasites that carried a single PfFNT G107S point mutation; set-up: method as in PMID 23798988; conditions: cited from earlier work
PfFNT = conditions: cited from earlier work; for pIC50: PfFNT expressed in Saccharomyces cerevisiae yeast
PfFNT-GFP = target: T1, PfFNT-GFP (Plasmodium falciparum, UniProt O77389); experiment: FCCS loss of signal screening competition assay; assay type: binding
T1 construct: The DNA of full-length PfFNT from Plasmodium falciparum 3D7 was cloned as a C-terminal GFP fusion; expressed in transfected cells; intact cells for imaging, LMNG-solubilized membranes or lysates for FCCS
T1 sequence (O77389 whole entry, the tested form may be a part): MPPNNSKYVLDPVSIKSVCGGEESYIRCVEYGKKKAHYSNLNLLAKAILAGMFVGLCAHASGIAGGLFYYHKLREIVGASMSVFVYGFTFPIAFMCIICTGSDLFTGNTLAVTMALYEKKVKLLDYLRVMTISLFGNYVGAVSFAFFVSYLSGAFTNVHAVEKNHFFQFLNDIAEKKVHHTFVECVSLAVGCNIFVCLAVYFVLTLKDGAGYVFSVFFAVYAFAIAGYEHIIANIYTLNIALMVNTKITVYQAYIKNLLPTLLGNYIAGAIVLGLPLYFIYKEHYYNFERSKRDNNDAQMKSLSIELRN
Method: With a loss of signal screening assay using the GFP fusion of PfFNT wildtype and BH296-DY647 as the interaction pair, we set out to test the FCCS approach on a selection of 26 compounds that were validated before using functional lactate transport assays in yeast. In more detail, HEK cell lysates were adjusted to a PfFNT-GFP concentration of 4 nM and mixed with fluorescence-labeled BH296-DY647 at a final concentration of 80 nM, approximating the previously determined KD-value of this interaction. A total of 20 µL of the mix was then dispensed into the wells of a glass-bottom 384 microtiter plate. […] The wells were then analyzed by FCCS, Ki values were determined, and compared by a scatter plot to the IC50 values from the previous functional assays in yeast (Figure 6). […]
FCCS measurements were conducted in 384-well glass-bottom plates (cat. no PS96B-G175, SWISSCI, Switzerland) using an Insight plate reader (Evotec Technologies, Germany) fitted with a U-Apo300 40x water immersion lens, NA 1.15 (Olympus, Japan). […] Fluorescence fluctuations were recorded for 8 s with 12 repetitions and analyzed afterward using FCS+plus Analyze 1.1P (Evotec technologies, Version 1.2.5g). […] All KD and IC50 values, as well as kinetic parameters, were determined from three independently repeated experiments. […]

SMILES	pEC50 [1]	pIC50 (PfFNT G107S)	pEC50 [2]	pIC50 (PfFNT)	pKi (PfFNT-GFP)	Ki (affinity) from FCCS competition screen (PfFNT-GFP; 4 nM PfFNT-GFP, 80 nM BH296-DY647, 1 h room temperature)	activity in functional yeast lactate transport assay (PfFNT; validated before)
COc1ccc2c(c1)OC(O)(C(F)(F)C(F)(F)F)CC2=O (stereo not drawn) [MMV007839]	6.85	4.68	4.46	6.77			
O=C1CC(O)(C(F)(F)C(F)(F)F)Oc2ccccc21 (stereo not drawn) [MMV000972, reference compound]	5.77			6.77			
O=C(/C=C(\O)C(F)(F)C(F)(F)F)c1ccc(C(=O)/C=C(\O)C(F)(F)C(F)(F)F)cc1 [BH454]					> 7.00	double-digit nanomolar range	little activity; also recorded: not very effective

From article PMC8399565, “Fluorescence Cross-Correlation Spectroscopy Yields True Affinity and Binding Kinetics of Plasmodium Lactate Transport Inhibitors” (Pharmaceuticals, 2021)
